Four compounds from PMC5187899, “Discovery of Anti-Hypertensive Oligopeptides from Adlay Based on In Silico Proteolysis and Virtual Screening” (International Journal of Molecular Sciences, 2016) can be followed below.

The experiment addresses T1, ACE from rabbit lungs (Oryctolagus cuniculus, UniProt P12822).
T1 construct: ACE from rabbit lungs and HHL was supplied by Sigma-Aldrich; purchased Sigma-Aldrich (St. Louis, MO, USA); host or cells: rabbit lung tissue
T1 sequence (P12822 34-1310): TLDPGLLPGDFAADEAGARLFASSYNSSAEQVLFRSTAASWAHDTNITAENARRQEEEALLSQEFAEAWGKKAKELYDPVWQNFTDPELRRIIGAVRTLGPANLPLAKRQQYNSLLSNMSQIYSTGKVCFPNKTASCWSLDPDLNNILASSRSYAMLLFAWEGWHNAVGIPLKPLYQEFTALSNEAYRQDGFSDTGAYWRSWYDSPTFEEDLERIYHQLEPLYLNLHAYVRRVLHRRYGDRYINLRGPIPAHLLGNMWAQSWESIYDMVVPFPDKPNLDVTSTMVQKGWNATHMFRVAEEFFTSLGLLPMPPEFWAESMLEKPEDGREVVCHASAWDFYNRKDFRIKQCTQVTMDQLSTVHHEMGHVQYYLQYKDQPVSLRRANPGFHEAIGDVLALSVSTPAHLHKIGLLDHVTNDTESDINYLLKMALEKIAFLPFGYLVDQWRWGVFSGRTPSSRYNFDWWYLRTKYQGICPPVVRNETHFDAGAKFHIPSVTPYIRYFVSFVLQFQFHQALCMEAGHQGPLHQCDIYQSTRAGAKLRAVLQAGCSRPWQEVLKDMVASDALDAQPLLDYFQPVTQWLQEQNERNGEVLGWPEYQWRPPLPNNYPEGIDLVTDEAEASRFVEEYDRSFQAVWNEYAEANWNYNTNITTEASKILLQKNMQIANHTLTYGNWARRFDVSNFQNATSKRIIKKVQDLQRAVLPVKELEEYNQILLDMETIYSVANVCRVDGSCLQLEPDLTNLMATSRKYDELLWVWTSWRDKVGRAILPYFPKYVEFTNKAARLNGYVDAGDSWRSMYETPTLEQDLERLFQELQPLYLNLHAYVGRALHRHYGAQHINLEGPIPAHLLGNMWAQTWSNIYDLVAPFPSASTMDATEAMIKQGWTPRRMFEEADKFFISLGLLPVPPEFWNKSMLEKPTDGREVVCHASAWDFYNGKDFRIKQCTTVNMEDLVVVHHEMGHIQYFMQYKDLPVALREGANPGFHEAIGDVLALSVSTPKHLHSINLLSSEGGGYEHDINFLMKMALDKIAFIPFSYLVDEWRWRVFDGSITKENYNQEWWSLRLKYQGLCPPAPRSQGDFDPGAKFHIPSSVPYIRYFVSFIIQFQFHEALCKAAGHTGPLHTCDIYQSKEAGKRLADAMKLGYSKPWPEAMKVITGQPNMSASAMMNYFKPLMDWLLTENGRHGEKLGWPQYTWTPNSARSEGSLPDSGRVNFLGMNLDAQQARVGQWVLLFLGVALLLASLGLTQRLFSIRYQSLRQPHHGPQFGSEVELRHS
Put plainly: ACE inhibitory activity assay by RP-HPLC (HHL substrate, hippuric acid detection). The following applies: for ACE inhibitory activity (in words): chromatograms at 0.048 mg/mL. Format: biochemical. From the text:
The potential oligopeptides obtained by docking were chemically synthesized by the Beijing Scilight Biotechnology Ltd., Co. (Beijing, China). The purity levels of the synthesized oligopeptides were all greater than 98% by HPLC analysis. ACE from rabbit lungs and HHL was supplied by Sigma-Aldrich (St. Louis, MO, USA). Acetonitrile of HPLC grade was purchased from Fisher Scientific (Pittsburgh, PA, USA). Lisinopril was supplied by Beijing HWRK Chem Co., Ltd. (Beijing, China) with more than 98% purity. All other used chemicals were of analytical grade.
The assay of in vitro ACE inhibitory activity was performed by RP-HPLC method by Yuan. Initially, the mixture was incubated at 37 °C for 10 min, including 10 μL of samples and 20 μL ACE (2 mU). After adding 20 μL of 2 mM HHL, the mixture continued to be incubated for 60 min until acetonitrile was added to terminate reaction. HA from the hydrolysis of the substrate HHL was detected by RP-HPLC on a C18 column (250 × 4.6 mm, 5 μm, Tianhe) at 228 nm. The column was eluted at a flow rate of 1 mL/min using 25% (v/v) acetonitrile in water with 0.05% trifluoroacetic acid. Lisinopril and borate buffer solution were used as positive and negative control, respectively. The formula (1) for computing ACE inhibitory rate is shown as follows. Wherein, Acontrol is the peak area of HA by negative control and Asample is the peak area of HA by the sample. The IC50 was calculated by the dosage and efficiency curve based on the 50% inhibition of ACE. (1) Inhibitory activity (%)=Acontrol−Asample/Acontrol×100%

No end group written: not given here.

As a reminder, the IC50 is the concentration that gives 50% inhibition.

Turning to `NCCCC[C@H](N[C@@H](CCc1ccccc1)C(=O)O)C(=O)N1CCC[C@H]1C(=O)O` [Lisinopril, lisinopril, reference compound], the ACE inhibition ratio (lisinopril 2 × 10^−9 mol/L, RP-HPLC, 228 nm, 37 °C, 2 mM HHL, 60 min) is 77.86% ± 0.15%.

Turning to “NCHEF [oligopeptide from in silico proteolysis of adlay prolamins, chemically synthesized]”, for the setting “RP-HPLC”, the “ACE inhibitory activity (in words)” value is “could not obtain the desirable activities of ACE”. Regarding NPATY [NPATY], under “RP-HPLC on C18 column, 228 nm, 10 μL sample + 20 μL ACE (2 mU), 37 °C 10 min pre-incubation, 20 μL of 2 mM HHL, 60 min, from dosage and efficiency curve”, the IC50 was 61.9 ± 2.77 µM.

Consider “VSAIGF [oligopeptide from in silico proteolysis of adlay prolamins, chemically synthesized]”, for which the “ACE inhibitory activity (in words)” value (RP-HPLC) is “could not obtain the desirable activities of ACE”.
